From article PMC8627988 (Molecular Metabolism, 2021)

Target: T1, PPARγ (Homo sapiens, UniProt P37231)
T1 sequence (P37231 235-505 limits assumed): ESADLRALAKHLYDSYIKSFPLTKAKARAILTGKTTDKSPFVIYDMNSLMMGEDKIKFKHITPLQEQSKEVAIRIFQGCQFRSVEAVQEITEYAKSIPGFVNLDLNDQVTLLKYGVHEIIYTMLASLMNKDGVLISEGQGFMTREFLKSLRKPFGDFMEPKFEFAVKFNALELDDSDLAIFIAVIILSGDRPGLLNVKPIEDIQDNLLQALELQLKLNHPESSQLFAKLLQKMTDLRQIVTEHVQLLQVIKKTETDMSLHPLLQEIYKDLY
Test: fluorescence polarization competition binding

SMILES: Cc1c(C)n(Cc2ccc(-c3ccccc3C(=O)O)cc2)c2ccc(C(=O)NCc3cccc(O)c3)cc12 [WO95E, 4'-((5-((3-hydroxybenzyl)carbamoyl)-2,3-dimethyl-1H-indol-1-yl)methyl)-[1,1′-biphenyl]-2-carboxylic acid]
- IC50: ~11 nM
